Experimental data: ChEMBL document CHEMBL1136452, “Influence of ethylene-oxy spacer group on the activity of linezolid: synthesis of potent antibacterials possessing a thiocarbonyl group” (2003)
In brackets after ≈: the same amount, converted by molar mass.

How the values were obtained:
Type in all cases: functional
Enterococcus faecalis [1] = test: In vitro antibacterial activity against vancomycin-susceptible E. f. 153 (Enterococcus faecalis ATCC 29212)
Enterococcus faecium [2] = test: In vitro antibacterial activity against vancomycin-resistant Enterococcus faecium 154 (Enterococcus faecium ATCC 12202)
Staphylococcus aureus [3] = test: In vitro antibacterial activity against S. a. 213 (Staphylococcus. aureus ATCC 49951)
Staphylococcus aureus [4] = test: In vitro antibacterial activity against methicillin-resistant S. a. 019 (Staphylococcus aureus ATCC 33591 )
Enterococcus faecalis [5] = test: In vitro antibacterial activity against vancomycin-susceptible E. f. 034 (Enterococcus faecalis ATCC 29212)
Staphylococcus aureus [6] = test: In vitro antibacterial activity against S. a. 035 (Staphylococcus aureus ATCC 29213)
Staphylococcus aureus [7] = test: In vitro antibacterial activityd against methicillin-resistant S. a. 019 (Staphylococcus aureus ATCC 33591 )
Enterococcus faecium [8] = test: In vitro antibacterial activityd against vancomycin-resistant Enterococcus faecium 154 (Enterococcus faecium ATCC 12202)
Staphylococcus aureus [9] = test: In vitro minimum inhibitory concentration of compound against S. a. 035 (Staphylococcus aureus ATCC 29213)

## C/C(S)=N/NC[C@H]1CN(c2ccc(OCCN3CCCCC3)c(F)c2)C(=O)O1
Enterococcus faecalis [1]
  MIC: 4 mg/L (≈ 9.74 µM)
Enterococcus faecium [2]
  MIC: 4 mg/L (≈ 9.74 µM)
Staphylococcus aureus [3]
  MIC: 8 mg/L (≈ 19.5 µM)
Staphylococcus aureus [4]
  MIC: 2 mg/L (≈ 4.87 µM)
Enterococcus faecalis [5]
  MIC: 8 mg/L (≈ 19.5 µM)
Staphylococcus aureus [6]
  MIC: 8 mg/L (≈ 19.5 µM)

## CO/C(S)=N/NC[C@H]1CN(c2ccc(OCCN3CCSCC3)c(F)c2)C(=O)O1
Enterococcus faecalis [1]
  MIC: 2 mg/L (≈ 4.5 µM)
Enterococcus faecium [2]
  MIC: 2 mg/L (≈ 4.5 µM)
Staphylococcus aureus [3]
  MIC: 4 mg/L (≈ 9 µM)
Enterococcus faecalis [5]
  MIC: 1 mg/L (≈ 2.25 µM)
Staphylococcus aureus [6]
  MIC: 4 mg/L (≈ 9 µM)
Staphylococcus aureus [7]
  MIC: 1 mg/L (≈ 2.25 µM)

## CC(=O)NNC[C@H]1CN(c2ccc(OCCO)c(F)c2)C(=O)O1
Enterococcus faecalis [1]
  MIC: 16 mg/L (≈ 48.9 µM)
Enterococcus faecalis [5]
  MIC: 16 mg/L (≈ 48.9 µM)
Enterococcus faecium [8]
  MIC: 16 mg/L (≈ 48.9 µM)
Staphylococcus aureus [6]
  MIC: 8 mg/L (≈ 24.4 µM)
Staphylococcus aureus [7]
  MIC: 8 mg/L (≈ 24.4 µM)

## CC(=O)NNC[C@H]1CN(c2ccc(OCCN3CCCC3)cc2)C(=O)O1
Enterococcus faecalis [1]
  MIC: > 32 mg/L
Enterococcus faecium [2]
  MIC: > 32 mg/L
Staphylococcus aureus [4]
  MIC: 32 mg/L (≈ 88.3 µM)
Enterococcus faecalis [5]
  MIC: > 32 mg/L
Staphylococcus aureus [6]
  MIC: > 32 mg/L

## C/C(S)=N/NC[C@H]1CN(c2ccc(OCCN3CCSCC3)c(F)c2)C(=O)O1
Enterococcus faecalis [1]
  MIC: 2 mg/L (≈ 4.67 µM)
Enterococcus faecium [2]
  MIC: 2 mg/L (≈ 4.67 µM)
Staphylococcus aureus [3]
  MIC: 2 mg/L (≈ 4.67 µM)
Staphylococcus aureus [4]
  MIC: 0.5 mg/L (≈ 1.17 µM)
Enterococcus faecalis [5]
  MIC: 1 mg/L (≈ 2.33 µM)
Staphylococcus aureus [6]
  MIC: 2 mg/L (≈ 4.67 µM)

## CC(=O)NNC[C@H]1CN(c2ccc(OCCN3CCSCC3)c(F)c2)C(=O)O1
Enterococcus faecalis [1]
  MIC: 16 mg/L (≈ 38.8 µM)
Enterococcus faecium [2]
  MIC: 4 mg/L (≈ 9.7 µM)
Staphylococcus aureus [3]
  MIC: 16 mg/L (≈ 38.8 µM)
Staphylococcus aureus [4]
  MIC: 4 mg/L (≈ 9.7 µM)
Enterococcus faecalis [5]
  MIC: 16 mg/L (≈ 38.8 µM)
Staphylococcus aureus [6]
  MIC: 16 mg/L (≈ 38.8 µM)

## CC(=O)NNC[C@H]1CN(c2ccc(OCCOCc3ccccc3)c(F)c2)C(=O)O1
Enterococcus faecalis [1]
  MIC: 32 mg/L (≈ 76.7 µM)
Staphylococcus aureus [4]
  MIC: 8 mg/L (≈ 19.2 µM)
Enterococcus faecalis [5]
  MIC: 32 mg/L (≈ 76.7 µM)
Enterococcus faecium [8]
  MIC: 32 mg/L (≈ 76.7 µM)
Staphylococcus aureus [6]
  MIC: 16 mg/L (≈ 38.3 µM)

## C/C(S)=N/NC[C@H]1CN(c2ccc(OCCN3CCOCC3)c(F)c2)C(=O)O1
Enterococcus faecalis [1]
  MIC: 2 mg/L (≈ 4.85 µM)
Staphylococcus aureus [9]
  MIC: 2 mg/L (≈ 4.85 µM)
Enterococcus faecium [2]
  MIC: 2 mg/L (≈ 4.85 µM)
Staphylococcus aureus [3]
  MIC: 2 mg/L (≈ 4.85 µM)
Staphylococcus aureus [4]
  MIC: 1 mg/L (≈ 2.42 µM)
Enterococcus faecalis [5]
  MIC: 2 mg/L (≈ 4.85 µM)

## CO/C(S)=N/NC[C@H]1CN(c2ccc(OCCN3CCOCC3)c(F)c2)C(=O)O1
Enterococcus faecalis [1]
  MIC: 4 mg/L (≈ 9.34 µM)
Enterococcus faecium [2]
  MIC: 2 mg/L (≈ 4.67 µM)
Staphylococcus aureus [3]
  MIC: 4 mg/L (≈ 9.34 µM)
Staphylococcus aureus [4]
  MIC: 2 mg/L (≈ 4.67 µM)
Enterococcus faecalis [5]
  MIC: 2 mg/L (≈ 4.67 µM)
Staphylococcus aureus [6]
  MIC: 4 mg/L (≈ 9.34 µM)

## CC(=O)NNC[C@H]1CN(c2ccc(OCCN3CCOCC3)cc2)C(=O)O1
Enterococcus faecalis [1]
  MIC: > 32 mg/L
Enterococcus faecium [2]
  MIC: > 32 mg/L
Staphylococcus aureus [4]
  MIC: > 32 mg/L
Enterococcus faecalis [5]
  MIC: > 32 mg/L
Staphylococcus aureus [6]
  MIC: > 32 mg/L

## CC(=O)NNC[C@H]1CN(c2ccc(OCCN3CCCCC3)cc2)C(=O)O1
Enterococcus faecalis [1]
  MIC: > 32 mg/L
Enterococcus faecium [2]
  MIC: > 32 mg/L
Staphylococcus aureus [4]
  MIC: > 32 mg/L
Enterococcus faecalis [5]
  MIC: > 32 mg/L
Staphylococcus aureus [6]
  MIC: > 32 mg/L

## CC(=O)NNC[C@H]1CN(c2ccc(OCCN3CCCCC3)c(F)c2)C(=O)O1
Enterococcus faecalis [1]
  MIC: 64 mg/L (≈ 162 µM)
Enterococcus faecium [2]
  MIC: 64 mg/L (≈ 162 µM)
Staphylococcus aureus [3]
  MIC: 64 mg/L (≈ 162 µM)
Staphylococcus aureus [4]
  MIC: 32 mg/L (≈ 81.1 µM)
Enterococcus faecalis [5]
  MIC: 64 mg/L (≈ 162 µM)
Staphylococcus aureus [6]
  MIC: 64 mg/L (≈ 162 µM)

## CC(=O)NNC[C@H]1CN(c2ccc(OCCN3CCOCC3)c(F)c2)C(=O)O1
Enterococcus faecalis [1]
  MIC: 16 mg/L (≈ 40.4 µM)
Enterococcus faecium [2]
  MIC: 4 mg/L (≈ 10.1 µM)
Staphylococcus aureus [3]
  MIC: 16 mg/L (≈ 40.4 µM)
Staphylococcus aureus [4]
  MIC: 4 mg/L (≈ 10.1 µM)
Enterococcus faecalis [5]
  MIC: 16 mg/L (≈ 40.4 µM)
Staphylococcus aureus [6]
  MIC: 16 mg/L (≈ 40.4 µM)

## CC(=O)NC[C@H]1CN(c2ccc(N3CCOCC3)c(F)c2)C(=O)O1 [LINEZOLID]
Enterococcus faecium [2]
  MIC: 2 mg/L (≈ 5.93 µM)
Staphylococcus aureus [4]
  MIC: 1 mg/L (≈ 2.96 µM)

## CN[C@H](CC(C)C)C(=O)N[C@H]1C(=O)N[C@@H](CC(N)=O)C(=O)N[C@H]2C(=O)N[C@H]3C(=O)N[C@H](C(=O)N[C@H](C(=O)O)c4cc(O)cc(O)c4-c4cc3ccc4O)[C@H](O)c3ccc(c(Cl)c3)Oc3cc2cc(c3O[C@@H]2O[C@H](CO)[C@@H](O)[C@H](O)[C@H]2O[C@H]2C[C@](C)(N)[C@H](O)[C@H](C)O2)Oc2ccc(cc2Cl)[C@H]1O [VANCOMYCIN]
Enterococcus faecalis [1]
  MIC: > 32 mg/L
Enterococcus faecium [2]
  MIC: > 32 mg/L
Enterococcus faecalis [5]
  MIC: 2 mg/L (≈ 1.38 µM)
